Converted amounts (≈) assume the structure as drawn. Like-named read-outs stand apart in the source and are kept apart here. Some results are limits rather than exact numbers.

This is an account of results in publication PMC3566758 (Beilstein Journal of Organic Chemistry, 2013).

The nature of data set [1]: microbe, parasite or virus in culture. It is filed as cell-based. The settings on record: Influenza A virus, WSN, read-out: EC50 WSN.
Data set [2] deals with measles virus (MeV) recombinant. Nature of the data set: microbe, parasite or virus in culture. The data set is classed as cell-based. The following applies: for EC50: Measles morbillivirus.
On the set-up of data set [3]: method as in earlier work. The following applies: ref 15 (Pharmacokinetics Study of JMN3-003. Unpublished results); cited from earlier work.
The subject of a further data set is measles virus (MeV). Nature of the data set: measles virus cytopathic effect (CPE) reduction assay. The data set is classed as cell-based. The settings on record: Measles morbillivirus, read-out: MeV (CPE) 50% inhibitory concentration. How it is done: A small set of compounds was synthesized based on variations of 1 by replacing the p-methoxyphenyl group with other substituted phenyl rings or heterocyclic rings. The compounds were initially assayed in two screening assays: (1) a measles virus cytopathic effect (CPE) reduction assay and (2) a solubility assay based on laser nephelometry. Unfortunately, compounds with the highest aqueous solubilities (>100 µg/mL) had the poorest antiviral activity (i.e., 18a and 18e, Table 1).
(Protection from cytopathic effect is a common read-out in antiviral testing.)

In another data set the test system is MeV. Nature of the data set: virus yield reduction assay. It is filed as cell-based. The following applies: Measles morbillivirus, read-out: MeV 50% inhibitory concentration, virus yield reduction assay.
Setting [4] is: pH 3, aqueous buffer, kinetic from dmso stock.
Setting [5] is: pH 5, aqueous buffer, kinetic from dmso stock.
The mark [6] stands for this setting: pH 7.4, aqueous buffer, kinetic from dmso stock.
[7] abbreviates: averages of four experiments, highest concentration assessed 75 μM.

As a reminder, the EC50 is the concentration at which the effect is half-maximal. Take `COc1ccc(-n2c(S[C@H](C)C(=O)Nc3ccc(C)cc3Cl)nc3ccccc32)cc1` [(R)-1]: the EC50 in data set [1] was found to be 160 nM; in data set [2] (read-out: EC50 MeV), 880 nM. The molecule further had a CC50 in the data set “in vitro” of more than 50000 nM.
`Cc1ccc(NC(=O)[C@@H](C)Sc2nc3ccccc3n2-c2ccccc2CN2CCN(C)CC2)c(Cl)c1` [(R)-14a]: the EC50 in data set [1] stood at 120 nM; in data set [2] (read-out: EC50 MeV), 470 nM.
For the molecule `Cc1ccc(NC(=O)[C@@H](C)Sc2nc3ccccc3n2-c2cccc(CCN3CCOCC3)c2)c(Cl)c1` [(R)-14b], the EC50 stood at 110 nM in data set [1] and 210 nM in data set [2] (read-out: EC50 MeV). The CC50 in “in vitro” is more than 50000 nM.
With `Cc1ccc(NC(=O)[C@@H](C)Sc2nc3ccccc3n2-c2ccc(CCN3CCOCC3)cc2)c(Cl)c1` [(R)-14c], the EC50 in data set [1] came out at 120 nM; in data set [2] (read-out: EC50 MeV), 530 nM.
Regarding `COc1ccc(-n2c(S[C@@H](C)C(=O)Nc3ccc(C)cc3Cl)nc3ccccc32)cc1` [(S)-1], the EC50 in data set [1] worked out at 5 nM; in data set [2] (read-out: EC50 MeV) it was 37 nM. In “in vitro”, the CC50 was more than 50000 nM.
For the molecule `Cc1ccc(NC(=O)[C@H](C)Sc2nc3ccccc3n2-c2ccccc2CN2CCN(C)CC2)c(Cl)c1` [(S)-14a], the EC50 amounted to 4 nM in data set [1] and 68 nM in data set [2] (read-out: EC50 MeV). In the data set “in vitro”, this molecule gave a CC50 of 25000 nM.
For `Cc1ccc(NC(=O)[C@H](C)Sc2nc3ccccc3n2-c2cccc(CCN3CCOCC3)c2)c(Cl)c1` [(S)-14b], the EC50 in data set [1] is 1 nM; in data set [2] (WSN, read-out: EC50 values against the two viruses), 1 to 11 nM; in data set [2] (read-out: EC50 MeV) it was 11 nM. The CC50 in “in vitro” was more than 50000 nM.
Regarding `Cc1ccc(NC(=O)[C@H](C)Sc2nc3ccccc3n2-c2ccc(CCN3CCOCC3)cc2)c(Cl)c1` [(S)-14c], the EC50 in data set [1] was determined as 36 nM; in data set [2] (read-out: EC50 MeV) it was 180 nM.
A word on the solubility: it is how much of the substance goes into solution per volume. The low end stands for a poorly soluble substance, the high end for a readily soluble substance. As for `COc1ccc(-n2c(SC(C)C(=O)Nc3ccc(C)cc3Cl)nc3ccccc32)cc1` (stereo not shown) [Compound 1], the results for the EC50 in data set [1] and in data set [2] (read-out: EC50 MeV) were 13 nM and 31 nM, respectively. In addition, in data set [3], the oral bioavailability result is recorded as “low”. Besides, the solubility in “physchem”, in “physchem” (setting [4]), in “physchem” (setting [5]) and in the data set “physchem” (setting [6]) was less than 15 µg/mL each time. In addition, the IC50 in the data set on measles virus (MeV) (setting [7]) was 3100 nM. Also, the CC50 in the data set “in vitro” is more than 50000 nM.
Turning to `Cc1ccc(NC(=O)C(C)Sc2nc3ccccc3n2-c2ccccc2CN2CCN(C)CC2)c(Cl)c1` (stereo not shown) [Compound 14a], the EC50 in data set [1] is 8 nM; in data set [2] (read-out: EC50 MeV), 41 nM. Further, the solubility was more than 300 µg/mL in the data set “physchem” (setting [4]), 92 µg/mL (≈ 172 µM) in the data set “physchem” (setting [5]) and 20 µg/mL (≈ 37.4 µM) in the data set “physchem” (setting [6]). Also, the IC50 in the data set with measles virus (MeV) (setting [7]) came to 179 nM.
`Cc1ccc(NC(=O)C(C)Sc2nc3ccccc3n2-c2cccc(CCN3CCOCC3)c2)c(Cl)c1` (stereo not shown) [Compound 14b]: the EC50 was found to be 0.3 nM in data set [1] and 13 nM in data set [2] (read-out: EC50 MeV). The solubility in “physchem” (setting [4]) worked out at 158 µg/mL (≈ 295 µM); in “physchem” (setting [5]), 33 µg/mL (≈ 61.7 µM); in “physchem” (setting [6]) it was 15 µg/mL (≈ 28 µM). In addition, the IC50 in the data set on measles virus (MeV) (setting [7]) came out at 200 nM. The molecule also returned a CC50 in the data set “in vitro” of more than 50000 nM.
Regarding `Cc1ccc(NC(=O)C(C)Sc2nc3ccccc3n2-c2ccc(CCN3CCOCC3)cc2)c(Cl)c1` (stereo not shown) [Compound 14c], the figures for the EC50 in data set [1] and in data set [2] (read-out: EC50 MeV) were 43 nM and 110 nM, respectively. Moreover, the solubility worked out at 212 µg/mL (≈ 396 µM) in the data set “physchem” (setting [4]), 51 µg/mL (≈ 95.3 µM) in “physchem” (setting [5]) and 25 µg/mL (≈ 46.7 µM) in the data set “physchem” (setting [6]). Also, the IC50 in the data set on measles virus (MeV) (setting [7]) amounted to 600 nM. Further, the “ΔEC50, (S)-enantiomer versus (R)-enantiomer” value in data set [2] (MeV and WSN EC50 comparisons) is less than 3 fold.
As for `Cc1ccc(NC(=O)C(C)Sc2nc3ccccc3n2C2CCCN(C)C2)c(Cl)c1` (stereo not shown) [Compound 18b], the solubility in “physchem” (setting [6]) was determined as 19 µg/mL (≈ 42.9 µM). The IC50 in the data set on measles virus (MeV) is more than 290 nM.
As to `Cc1ccc(NC(=O)C(C)Sc2nc3ccccc3n2N2CCN(C)CC2)c(Cl)c1` (stereo not shown) [Compound 18c], the solubility in “physchem” (setting [6]) was less than 15 µg/mL. For the same molecule, the IC50 in the data set on measles virus (MeV) (setting [7]) was more than 75000 nM.
In the case of `Cc1ccc(NC(=O)C(C)Sc2nc3ccccc3n2CCN2CCOCC2)c(Cl)c1` (stereo not shown) [Compound 18d], the solubility in the data set “physchem” (setting [6]) was determined as 22 µg/mL (≈ 47.9 µM). The IC50 with measles virus (MeV) (setting [7]) is 4900 nM.
On to `Cc1ccc(NC(=O)C(C)Sc2nc3ccccc3n2CCN2CCNCC2)c(Cl)c1` (stereo not shown) [Compound 18e], for which the solubility is more than 100 µg/mL in “physchem” (pH 7.4) and 120 µg/mL (≈ 262 µM) in the data set “physchem” (setting [6]). Besides, the IC50 in the data set with measles virus (MeV) (setting [7]) is more than 75000 nM.
In the data set “physchem” (setting [6]), `Cc1ccc(NC(=O)C(C)Sc2nc3ccccc3n2-c2cccc(CN3CCOCC3)c2)c(Cl)c1` (stereo not shown) [Compound 18f] registered a solubility of less than 15 µg/mL. In the data set with measles virus (MeV) (setting [7]), the IC50 came out at 270 nM.
Consider `Cc1ccc(NC(=O)C(C)Sc2nc3ccccc3n2-c2cccc(CCn3ncnn3)c2)c(Cl)c1` (stereo not shown) [Compound 18g], for which the IC50 with MeV came out at 50 nM. The molecule also came in with a solubility in the data set “physchem” (setting [6]) of less than 15 µg/mL.
